Like-named read-outs stand apart in the source and are kept apart here.
Tested on: Serratia marcescens (ATCC 13880)
Assay: Antimicrobial efficacy (stand-alone log reduction), S. marcescens
Format: cell-based
Settings: for log reduction at 4 ppm / log reduction at 1 ppm / log reduction at 2 ppm / log reduction at 3 ppm / log reduction at 5 ppm / log reduction at 4 µg/mL: Serratia marcescens; for log reduction at 4 µg/mL: 4.0 ppm alexidine in ReNu MPS; for Log Reduction S. marcescens: PAPB 0.0
Description: This Example illustrates the microbiocidal efficacy of solutions according to the present invention. The antimicrobial efficacy of each of various compositions for the chemical disinfection of contact lenses was evaluated. Microbial challenge inoculums were prepared using Pseudomonas aeruginosa (ATCC 9027), Staphylococcus aureus (ATCC 6538), Serratia marcescens (ATCC 13880), Candida albicans (ATCC 10231), and Fusarium solani (ATCC 36031). The test organisms were cultured on appropriate agar and the cultures were harvested using sterile DPBST (Dulbecco's Phosphate Buffered Saline plus 0.05% w/v polysorbate 80) or a suitable diluent and transferred to a suitable vessel. Spore suspensions were filtered through sterile glass wool to remove hyphal fragments. Serratia marcescens, as appropriate, was filtered (eg., through a 1.2 μ filter) to clarify the suspension. After harvesting, the suspension was centrifuged at no more than 5000× g for a maximum of 30 minutes at 20-25° C. The supernatant was poured off and resuspended in DPBST or other suitable diluent. The suspension was centrifuged a second time, and resuspended in DPBST or other suitable diluent. All challenge bacterial and fungal cell suspensions were adjusted with DPBST or other suitable diluent to 1×10^7 -10^8 cfu/mL. The appropriate cell concentration may be estimated by measuring the turbidity of the suspension, for example using a spectrophotometer at a preselected wavelength, for example 490 nm. One tube was prepared containing a minimum of 10 mL of test solution per challenge organism. Each tube of the solution to be tested was inoculated with a suspension of the test organism sufficient to provide a final count of 1.0×10^5 -10^6 cfu/mL, the volume of the inoculum not exceeding 1% of the sample volume. Dispersion of the inoculum was ensured by vortexing the sample for at least 15 seconds. The inoculated product was stored at 10-25° C. Aliquots in the amount of 1.0 mL were taken of the inoculated product for determination of viable counts after certain time periods of disinfection. The time points for the bacteria were 25, 50, 75, and 100% of the minimum disinfection time. Yeast and mold were tested at an additional timepoint of at least 400% of the minimum disinfection time. The suspension was mixed well by vortexing vigorously for at least 5 second. The 1.0 mL aliquots removed at the specified time intervals were subjected to a suitable series of decimal dilutions in validated neutralizing media. The suspensions were mixed vigorously and incubated for a suitable period of time to allow for neutralization of the microbial agent. The viable count of organisms was determined in appropriate dilutions by preparation of triplicate plates of trypticase soy (TSA) agar for bacteria and Sabouraud dextrose agar (SDA) for mold and yeast. The bacterial recovery plates were incubated at 30-35° C. for 2-4 days. The yeast was incubated at 20-30° C. for 2-4 days and mold recovery plates at 20-25° C. for 3-7 days. The average number of colony forming units was determined on countable plates. Countable plates refer to 30-300 cfu/plates for bacteria and yeast, and 8 to 80 cfu/plate for mold except when colonies are observed only for the 10^0 or 10^-1 dilution plates. The microbial reduction was then calculated at the specified time points. […] Following inoculation in a validated neutralizing broth and incubation for an appropriate period of time, the inoculum control must be between 1.0×10^5 -1.0×10^6 cfu/mL
The solutions were evaluated based on the performance requirement referred to as the "Stand-Alone Procedure for Disinfecting Products" (hereafter the "stand-alone test") and is based on the Disinfection Efficacy Testing for contact lens care products under the Draft Premarket Notification (510(k)) Guidance Document For Contact Lens Care Products dated Apr. 1, 1996, prepared by the U.S. Food and Drug Administration, Division of Ophthalmic Devices. […]

## CCCCC(CC)CNC(=N)NC(=N)NCCCCCCNC(=N)NC(=N)NCC(CC)CCCC.Cl.Cl (stereo not shown) [Alexidine.2HCl, 1,1 '-hexamethylenebis(5-(2-ethylhexyl)-biguanide) dihydrochloride]
ATCC13880, 2.5 min, 4.0 ppm, aged 18 months, Exp. 1, 2.5 min, read-out: Log Reduction
  log reduction at 4 ppm: 0.5
ATCC13880, 2.5 min, 4.0 ppm, aged 18 months, Exp. 2, 2.5 min, read-out: Log Reduction
  log reduction at 4 ppm: 0.8
ATCC13880, 2.5 min, 4.0 ppm, aged 18 months, Exp. 3, 2.5 min, read-out: Log Reduction
  log reduction at 4 ppm: 0.8
ATCC13880, 5 min
  log reduction at 4 ppm: 0.6
ATCC13880, 5 min, 1.0 ppm, read-out: Log Reduction at 5 Minutes
  log reduction at 1 ppm: 0.5
ATCC13880, 5 min, 2.0 ppm, read-out: Log Reduction at 5 Minutes
  log reduction at 2 ppm: 0.8
ATCC13880, 5 min, 3.0 ppm, read-out: Log Reduction at 5 Minutes
  log reduction at 3 ppm: 1.1
ATCC13880, 5 min, 4.0 ppm, aged 18 months, Exp. 2, 5.0 min, read-out: Log Reduction
  log reduction at 4 ppm: 2
ATCC13880, 5 min, 4.0 ppm, aged 18 months, Exp. 3, 5.0 min, read-out: Log Reduction
  log reduction at 4 ppm: 2
ATCC13880, 5 min, 4.0 ppm, read-out: Log Reduction at 5 Minutes
  log reduction at 4 ppm: 2
ATCC13880, 5 min, 5.0 ppm, read-out: Log Reduction at 5 Minutes
  log reduction at 5 ppm: 2.9
ATCC13880, 0.125 h, 4.0 ppm, aged 18 months, Exp. 1, 7.5 min, read-out: Log Reduction
  log reduction at 4 ppm: 0.9
ATCC13880, 0.125 h, 4.0 ppm, aged 18 months, Exp. 2, 7.5 min, read-out: Log Reduction
  log reduction at 4 ppm: 2.8
ATCC13880, 0.125 h, 4.0 ppm, aged 18 months, Exp. 3, 7.5 min, read-out: Log Reduction
  log reduction at 4 ppm: 2.2
ATCC13880, 10 min
  log reduction at 4 ppm: 1.2
ATCC13880, 10 min, 1.0 ppm, read-out: Log Reduction at 10 Minutes
  log reduction at 1 ppm: 0.7
ATCC13880, 10 min, 2.0 ppm, read-out: Log Reduction at 10 Minutes
  log reduction at 2 ppm: 1.8
ATCC13880, 10 min, 3.0 ppm, read-out: Log Reduction at 10 Minutes
  log reduction at 3 ppm: 2.6
ATCC13880, 10 min, 4.0 ppm, aged 18 months, Exp. 2, 10.0 min, read-out: Log Reduction
  log reduction at 4 ppm: 2.8
ATCC13880, 10 min, 4.0 ppm, aged 18 months, Exp. 3, 10.0 min, read-out: Log Reduction
  log reduction at 4 ppm: 2.2
ATCC13880, 10 min, 4.0 ppm, read-out: Log Reduction at 10 Minutes
  log reduction at 4 ppm: > 4.8
ATCC13880, 10 min, 5.0 ppm, read-out: Log Reduction at 10 Minutes
  log reduction at 5 ppm: > 4.8
ATCC13880, 0.25 h
  log reduction at 4 ppm: 3
ATCC13880, 0.25 h, 4.0 ppm, Ex. 6, aged 19 months at 25 °C, 15 min, read-out: Log Reduction
  log reduction at 4 ppm: 3.2
ATCC13880, 0.25 h, 4.0 ppm, Ex. 8, different batch aged 19 months at 25 °C, 15 min, read-out: Log Reduction
  log reduction at 4 ppm: 2.5
ATCC13880, 0.5 h, 4.0 ppm, Ex. 6, aged 19 months at 25 °C, 30 min, read-out: Log Reduction
  log reduction at 4 ppm: > 4.7
ATCC13880, 0.5 h, 4.0 ppm, Ex. 7, different lot aged 18 months, 30 min, read-out: Log Reduction
  log reduction at 4 ppm: 4.7
ATCC13880, 0.5 h, 4.0 ppm, Ex. 8, different batch aged 19 months at 25 °C, 30 min, read-out: Log Reduction
  log reduction at 4 ppm: 4.6
ATCC13880, 0.75 h, 4.0 ppm, Ex. 6, aged 19 months at 25 °C, 45 min, read-out: Log Reduction
  log reduction at 4 ppm: > 4.7
ATCC13880, 0.75 h, 4.0 ppm, Ex. 7, different lot aged 18 months, 45 min, read-out: Log Reduction
  log reduction at 4 ppm: > 4.8
ATCC13880, 0.75 h, 4.0 ppm, Ex. 8, different batch aged 19 months at 25 °C, 45 min, read-out: Log Reduction
  log reduction at 4 ppm: > 4.7
ATCC13880, 1 h, 1 ppm, 1 hr, read-out: Log Reduction
  log reduction at 1 ppm: 3.5
ATCC13880, 1 h, 2 ppm, 1 hr, read-out: Log Reduction
  log reduction at 2 ppm: > 4.8
ATCC13880, 1 h, 3 ppm, 1 hr, read-out: Log Reduction
  log reduction at 3 ppm: > 4.8
ATCC13880, 1 h, 1 hr
  log reduction at 4 µg/mL: 3.7
ATCC13880, 1 h, 4 ppm, 1 hr, read-out: Log Reduction
  log reduction at 4 ppm: > 4.8
ATCC13880, 1 h, 4.0 ppm, Ex. 6, aged 19 months at 25 °C, 60 min, read-out: Log Reduction
  log reduction at 4 ppm: > 4.7
ATCC13880, 1 h, 4.0 ppm, Ex. 7, different lot aged 18 months, 60 min, read-out: Log Reduction
  log reduction at 4 ppm: > 4.8
ATCC13880, 1 h, 4.0 ppm, Ex. 8, different batch aged 19 months at 25 °C, 60 min, read-out: Log Reduction
  log reduction at 4 ppm: > 4.7
ATCC13880, 1 h, 5 ppm, 1 hr, read-out: Log Reduction
  log reduction at 5 ppm: > 4.8
ATCC13880, 2 h, 2 hr
  log reduction at 4 µg/mL: > 4.7
ATCC13880, 3 h, 3 hr
  log reduction at 4 µg/mL: > 4.7
ATCC13880, 4 h, 4 hr
  log reduction at 4 µg/mL: > 4.7
Alexidine 0.5 ppm, 15 min
  Log Reduction S. marcescens: 0.6 log
Alexidine 0.5 ppm, 30 min
  Log Reduction S. marcescens: 1.6 log
Alexidine 0.5 ppm, 60 min
  Log Reduction S. marcescens: 2.5 log
Alexidine 2.6 ppm, 15 min
  Log Reduction S. marcescens: 2.2 log
Alexidine 2.6 ppm, 30 min
  Log Reduction S. marcescens: > 4.3 log
Alexidine 2.6 ppm, 60 min
  Log Reduction S. marcescens: > 4.3 log
